According to patent US12162856B2, “β-catenin and B-cell lymphoma 9 (BCL9) inhibitors” (H. LEE MOFFITT CANCER CENTER AND RESEARCH INSTITUTE, INC., priority 2019, dated 2024):
Structures can show the parent of a compound that is named as a salt. Where two headings read alike, the source gives them in different places.

Tests used:
β-catenin/BCL9 PPI = molecular target: T1, β-catenin/BCL9 PPI (Homo sapiens, UniProt P35222); experiment: AlphaScreen competitive inhibition assay of the β-catenin/BCL9 PPI; type: binding; settings: mean ± SD, triplicate, Ki derived from IC50 (Nikolovska-Coleska equation)
T1 construct: Wild-type full-length β-catenin were cloned into a pET-28b vector; made in house; host or cells: Escherichia coli BL21 DE3 (β-catenin); BCL9 peptide chemically synthesized
T1 sequence (P35222 1-781): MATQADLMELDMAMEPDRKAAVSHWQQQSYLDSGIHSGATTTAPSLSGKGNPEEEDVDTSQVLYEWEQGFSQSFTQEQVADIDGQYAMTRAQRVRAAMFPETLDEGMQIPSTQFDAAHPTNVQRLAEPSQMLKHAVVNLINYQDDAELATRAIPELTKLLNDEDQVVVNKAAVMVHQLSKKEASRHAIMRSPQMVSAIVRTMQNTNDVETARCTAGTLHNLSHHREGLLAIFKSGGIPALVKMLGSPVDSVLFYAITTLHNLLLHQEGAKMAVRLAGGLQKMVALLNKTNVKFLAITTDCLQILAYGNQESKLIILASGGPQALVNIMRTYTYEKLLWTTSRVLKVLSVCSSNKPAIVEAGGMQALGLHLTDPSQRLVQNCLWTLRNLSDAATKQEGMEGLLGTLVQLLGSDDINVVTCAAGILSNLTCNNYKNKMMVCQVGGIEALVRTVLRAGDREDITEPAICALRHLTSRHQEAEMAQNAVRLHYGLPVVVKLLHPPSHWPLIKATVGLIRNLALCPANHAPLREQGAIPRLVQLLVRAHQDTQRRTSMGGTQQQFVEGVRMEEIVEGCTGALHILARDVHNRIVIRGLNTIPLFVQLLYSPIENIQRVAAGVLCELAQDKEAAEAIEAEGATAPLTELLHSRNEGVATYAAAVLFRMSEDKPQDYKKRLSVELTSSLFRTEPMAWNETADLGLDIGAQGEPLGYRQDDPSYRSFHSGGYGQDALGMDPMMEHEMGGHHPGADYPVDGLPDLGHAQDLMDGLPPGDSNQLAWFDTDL
Protocol: Protein expression and purification. Wild-type full-length β-catenin were cloned into a pET-28b vector carrying a C-terminal 6×histidine (Novagen), and transformed into Escherichia coli BL21 DE3 (Novagen). Cells were cultured in LB medium with 30 μg/mL kanamycin until the OD600 was approximately 0.8, and then protein expression was induced with 400 μM of IPTG at 20° C. overnight. Cells were lysed by sonication. The proteins were purified by Ni-NTA affinity chromatography (30210, Qiagen) and dialyzed against a buffer containing 20 mM of Tris (pH 8.5), 100 mM NaCl, 10% glycerol, and 3 mM DTT. The purity of β-eaten in was greater than 95% as determined by SDS-PAGE gel analysis. Native non-denaturing gel electrophoresis was performed to confirm the homogeneity of the purified proteins. Thermal-shift assay was performed on an iCycler iQ Real Time Detection System (Bio-Rad) to monitor protein stability and detect protein aggregation. Protein unfolding was evaluated through measuring the S15 fluorescence changes of fluorescent dye Sypro Orange when interacting with wild-type or mutant β-catenin proteins. A temperature increment of […] was applied. CD spectra were measured on a J-815 spectropolarimeter (Jasco). All spectra were recorded at room temperature, and the baseline control containing all of the substances except protein. Sample were prepared at a concentration around 1-5 μM in a buffer of 10 mM potassium phosphate and 100 mM potassium fluoride at pH 7.0 to ensure that the transmission of light through the sample was not restricted. All proteins were stable and no aggregation was observed under storage or assay conditions. Proteins were aliquoted and stored at −80° C.
BCL9 peptide synthesis and purification. Human BCL9 (residues 350-375), and […] biotinylated human BCL9 (residues 350-375) were synthesized. All synthesized peptides were purified by HPLC with purity >95%. The structures were validated by LC/MS. The sequences are as follows (Ahx, 6-aminohexanoic acid).
AlphaScreen competitive inhibition assays. For the competitive inhibition assays of the β-catenin/BCL9 PPI, the negative control (equivalent to 0% inhibition) refers to 5.0 nM of biotinylated BCL9, 40 nM of His6-tagged β-catenin, and 10 μg/mL of donor and acceptor beads in a final volume of 25 μL assay buffer, but no tested inhibitor present. The positive control (equivalent to 100% inhibition) refers to 5.0 nM of biotinylated BCL9 and […] of donor and acceptor beads in a final volume of 25 μL assay buffer.
For the β-catenin/BCL9 assay, 5 nM of biotinylated BCL9 and 40 nM of His6-tagged β-catenin were incubated in assay buffer at 4° C. for 30 min. Different concentrations of the tested inhibitor were added and incubated in 20 μL assay buffer at 4° C. for another 1 h. All of the above assay plates were covered and gently mixed on an orbital shaker. The donor and acceptor beads were then added to the plates to a final concentration of 10 μg/mL in 25 μL assay buffer. The mixture was incubated for 1 h at 4° C. before detection. The IC50 value was determined by nonlinear least-square analysis of GraphPad Prism 5.0. The Ki values were derived from the IC50 values using a method reported by Nikolovska-Coleska et al (Nikolovska-Coleska, Z.; Wang, R.; Fang, X.; Pan, H.; Tomita, Y.; Li, P.; Roller, P. P.; Krajewski, K.; Saito, N. G.; Stuckey, J. A.; Wang, S. Development and optimization of a binding assay for the XIAP BIR3 domain using fluorescence polarization. Anal. Biochem. 2004, 332, 261-273.). The assays were conducted under the conditions required by Nikolovska-Coleska et al.'s equation for determining the Ki values. All of the experiments were performed in triplicate. The results were expressed as mean±standard deviation.

[1] = molecular target: T2, β-catenin/BCL9 interaction (Homo sapiens, UniProt P35222); settings: reported in the literature; cited from earlier work
T2 sequence (P35222 1-781): T1 sequence (P35222 1-781)

Wnt target genes = settings: reported in the literature; cited from earlier work
[2] = experiment 3, read-out: Ki (μM ± SD) experiment 3
[3] = experiment 4, read-out: Ki (μM ± SD) experiment 4

Row | SMILES | Ki (β-catenin/BCL9 PPI; [2]) | Ki (β-catenin/BCL9 PPI; [3]) | further results
1 | CC(C)(CN)C(=O)Nc1cc(F)cc(C(=O)N2CCN(C(=O)c3ccc(O[C@H]4CCNC4)c(C4CCC(C(F)(F)F)CC4)c3)CC2)c1 (stereo partly drawn) [Compound 11, (S)-3-amino-N-(3-fluoro-5-(4-(4-(pyrrolidin-3-yloxy)-3-(4-(trifluoromethyl)cyclohexyl)benzoyl)piperazine-1-carbonyl)phenyl)-2,2-dimethylpropanamide ditrifluoroacetate] |  |  | Ki (β-catenin/BCL9 PPI; experiment 1, read-out: Ki (μM ± SD) experiment 1): 170 ± 23 µM; Ki (β-catenin/BCL9 PPI; experiment 2, read-out: Ki (μM ± SD) experiment 2): 150 ± 18 µM
2 | CC(=O)Nc1cc(F)cc(C(=O)N2CCN(C(=O)c3ccc(O[C@H]4CCNC4)c(C4CCCCC4)c3)[C@@H](C)C2)c1 [Compound 13, N-(3-((S)-4-(3-Cyclohexyl-4-(((S)-pyrrolidin-3-yl)oxy)benzoyl)-3-methylpiperazine-1-carbonyl)-5-fluorophenyl) acetamide trifluoroacetate] | 330 ± 34 µM | 100 ± 18 µM | 
3 | CC(=O)Nc1cc(F)cc(C(=O)N2CCN(C(=O)c3ccc(O[C@H]4CCNC4)c(C4CCCCC4)c3)[C@@H](CC(C)C)C2)c1 [Compound 16, N-(3-((S)-4-(3-Cyclohexyl-4-(((S)-pyrrolidin-3-yl)oxy)benzoyl)-3-isobutylpiperazine-1-carbonyl)-5-fluorophenyl)acetamide trifluoroacetate] | 330 ± 43 µM | 200 ± 20 µM | 
4 | CC(C)c1cc2c(c(O)c1O)[C@@]1(C(=O)O)CCCC(C)(C)[C@@H]1CC2 [camosic acid, Carnosic acid] |  |  | disruption of the β-catenin/BCL9 interaction [1]: can disrupt the β-catenin/BCL9 interaction; suppression of Wnt target gene / β-catenin-dependent transcription (Wnt target genes): inhibit β-catenin-dependent transcription

Second part, led by results:

Row | Ki (β-catenin/BCL9 PPI; [2]) | Ki (β-catenin/BCL9 PPI; [3]) | SMILES | further results
5 | 61 ± 7.5 µM | 37 ± 3.6 µM | CC(=O)Nc1cc(F)cc(C(=O)N2CCN(C(=O)c3ccc(O[C@H]4CCNC4)c(C4CCCCC4)c3)CC2)c1 [Compound 12, (S)—N-(3-(4-(3-Cyclohexyl-4-(pyrrolidin-3-yloxy)benzoyl)piperazine-1-carbonyl)-5-fluorophenyl) acetamide trifluoroacetate] | 
6 | 790 ± 58 µM | 780 ± 130 µM | CC[C@H]1CN(C(=O)c2cc(F)cc(NC(C)=O)c2)CCN1C(=O)c1ccc(O[C@H]2CCNC2)c(C2CCCCC2)c1 [Compound 14, N-(3-((S)-4-(3-Cyclohexyl-4-(((S)-pyrrolidin-3-yl)oxy)benzoyl)-3-ethylpiperazine-1-carbonyl)-5-fluorophenyl) acetamide trifluoroacetate] | 
7 | 280 ± 27 µM | 290 ± 61 µM | CC(=O)Nc1cc(F)cc(C(=O)N2CCN(C(=O)c3ccc(O[C@H]4CCNC4)c(C4CCCCC4)c3)[C@@H](C(C)C)C2)c1 [Compound 15, N-(3-((S)-4-(3-Cyclohexyl-4-(((S)-pyrrolidin-3-yl)oxy)benzoyl)-3-isopropylpiperazine-1-carbonyl)-5-fluorophenyl) acetamide trifluoroacetate] | 
